From patent US8618289B2 (Ambit Biosciences Corporation, priority 2008, dated 2013)
Counter-ions that a name gives are not always drawn.

Legend:
RAF kinases [1] = target: RAF kinases (Homo sapiens, UniProt P15056, V600E); test: biochemical
A375 cells = test: cells; conditions: Homo sapiens, A-375, read-out: A375 Viability EC50
[2] = tested on: MEK1 phosphorylation in the A375 human melanoma cell line; test: cells; conditions: A-375, read-out: pMEK IC50
RAF kinases [3] = target: RAF kinases (Homo sapiens, UniProt P04049); test: biochemical
Chain of RAF kinases (Homo sapiens, UniProt P04049) (P04049 whole entry): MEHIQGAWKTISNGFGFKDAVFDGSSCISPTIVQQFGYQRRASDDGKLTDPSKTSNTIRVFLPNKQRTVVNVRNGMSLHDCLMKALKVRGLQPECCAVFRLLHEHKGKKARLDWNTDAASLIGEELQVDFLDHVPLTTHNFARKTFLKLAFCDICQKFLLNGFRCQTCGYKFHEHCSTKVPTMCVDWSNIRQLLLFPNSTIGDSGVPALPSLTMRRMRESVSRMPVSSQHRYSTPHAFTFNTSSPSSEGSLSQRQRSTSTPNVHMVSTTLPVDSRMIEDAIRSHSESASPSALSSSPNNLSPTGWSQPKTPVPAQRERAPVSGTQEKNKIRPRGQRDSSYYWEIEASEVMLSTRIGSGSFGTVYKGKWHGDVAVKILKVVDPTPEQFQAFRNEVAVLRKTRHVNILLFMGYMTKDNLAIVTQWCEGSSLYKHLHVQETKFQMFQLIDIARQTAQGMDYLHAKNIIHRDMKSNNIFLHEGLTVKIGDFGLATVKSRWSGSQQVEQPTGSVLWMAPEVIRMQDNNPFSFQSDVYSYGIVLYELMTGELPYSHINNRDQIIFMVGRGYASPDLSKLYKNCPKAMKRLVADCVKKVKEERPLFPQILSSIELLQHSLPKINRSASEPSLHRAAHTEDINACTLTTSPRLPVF

RAF kinases [4] = target: RAF kinases (Homo sapiens, UniProt P15056); test: biochemical
Chain of RAF kinases (Homo sapiens, UniProt P15056) (P15056 whole entry): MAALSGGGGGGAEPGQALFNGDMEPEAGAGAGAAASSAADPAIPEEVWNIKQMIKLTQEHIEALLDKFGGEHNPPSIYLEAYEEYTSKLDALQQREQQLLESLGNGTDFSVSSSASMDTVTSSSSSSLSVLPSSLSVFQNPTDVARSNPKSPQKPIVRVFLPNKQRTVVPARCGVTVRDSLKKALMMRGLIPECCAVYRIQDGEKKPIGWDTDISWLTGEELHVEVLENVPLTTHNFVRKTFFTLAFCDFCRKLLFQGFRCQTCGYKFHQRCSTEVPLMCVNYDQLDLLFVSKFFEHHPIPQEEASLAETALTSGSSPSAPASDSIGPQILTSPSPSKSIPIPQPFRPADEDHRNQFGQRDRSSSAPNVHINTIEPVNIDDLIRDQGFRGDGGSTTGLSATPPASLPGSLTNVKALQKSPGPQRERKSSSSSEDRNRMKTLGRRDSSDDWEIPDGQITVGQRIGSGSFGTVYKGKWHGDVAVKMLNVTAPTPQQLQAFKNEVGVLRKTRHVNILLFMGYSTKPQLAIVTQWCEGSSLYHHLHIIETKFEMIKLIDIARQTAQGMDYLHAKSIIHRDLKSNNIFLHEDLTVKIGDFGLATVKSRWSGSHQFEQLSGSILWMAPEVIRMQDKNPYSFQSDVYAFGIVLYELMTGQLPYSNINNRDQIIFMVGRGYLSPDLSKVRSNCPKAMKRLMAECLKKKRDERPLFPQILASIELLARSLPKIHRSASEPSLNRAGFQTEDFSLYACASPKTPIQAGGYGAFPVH

Chain of RAF kinases (Homo sapiens, UniProt P15056, V600E) (P15056 whole entry V600E): as the sequence (P15056 whole entry) above, with V600E counted along it

Kd (RAF kinases [1])	EC50 (A375 cells)	IC50 [2]	Kd (RAF kinases [3])	Kd (RAF kinases [4])	SMILES
250 to 500 nM	> 1000 nM	250 to 500 nM	–	–	COc1cc2ncnc(Oc3cccc(NC(=O)Nc4cc(C5(C(F)(F)F)CCC5)no4)c3)c2cc1OC [Ex 155, 1-(3-(6,7-dimethoxyquinazolin-4-yloxy)phenyl)-3-(3-(1-(trifluoromethyl)cyclobutyl)isoxazol-5-yl)urea]
250 to 500 nM	> 1000 nM	250 to 500 nM	250 to 500 nM	–	COc1cc(OC2CCOCC2)c2c(Oc3cccc(NC(=O)Nc4cc(C(C)(C)C)on4)c3)ncnc2c1 [Ex 94, 1-(5-tert-butylisoxazol-3-yl)-3-{3-[7-methoxy-5-(tetrahydro-2H-pyran-4-yloxy)quinazolin-4-yloxy]phenyl}urea]
250 to 500 nM	> 1000 nM	250 to 500 nM	500 to 1000 nM	–	COCCOc1ccc2ncnc(Sc3cccc(NC(=O)Nc4cc(C(C)(C)C)on4)c3)c2c1 [Ex 87, 1-(5-tert-butylisoxazol-3-yl)-3-(3-(6-(2-methoxyethoxy)quinazolin-4-ylthio)phenyl)urea]
250 to 500 nM	> 1000 nM	> 1000 nM	500 to 1000 nM	–	COc1cc2ncnc(Sc3cccc(NC(=O)Nc4ccc(C(F)(F)F)c(F)c4)c3)c2cc1OC [Ex 188, 1-(3-(6,7-dimethoxyquinazolin-4-ylthio)phenyl)-3-(3-fluoro-4-(trifluoromethyl)phenyl)urea]
500 to 1000 nM	250 to 500 nM	< 250 nM	–	–	COc1cc2ncnc(Oc3cccc(NC(=O)Nc4cc(C(F)(F)F)nn4-c4ccccc4)c3)c2cc1OC [Ex 161, 1-[3-(6,7-dimethoxyquinazolin-4-yloxy)phenyl]-3-[1-phenyl-3-(trifluoromethyl)-1H-pyrazol-5-yl]urea]
500 to 1000 nM	> 1000 nM	> 1000 nM	–	–	CC(C)(C)c1cc(NC(=O)Nc2cccc(Sc3ncnc4cc(F)c(F)cc34)c2)no1 [Ex 47, 1-(5-tert-butylisoxazol-3-yl)-3-(3-(6,7-difluoroquinazolin-4-ylthio)phenyl)urea]
500 to 1000 nM	250 to 500 nM	< 250 nM	–	–	COc1cc2ncnc(Sc3cccc(NC(=O)Nc4cc(C(F)(F)F)nn4-c4ccccc4)c3)c2cc1OC [Ex 192, 1-[3-(6,7-dimethoxyquinazolin-4-ylthio)phenyl]-3-[1-phenyl-3-(trifluoromethyl)-1H-pyrazol-5-yl]urea]
500 to 1000 nM	> 1000 nM	> 1000 nM	–	500 to 1000 nM	COCCOc1cc(NC(=O)Nc2cccc(Sc3ncnc4cc(OC)c(OC)cc34)c2)cc(C(F)(F)F)c1 [Ex 200, 1-(3-(6,7-dimethoxyquinazolin-4-ylthio)phenyl)-3-(3-(2-methoxyethoxy)-5-(trifluoromethyl)phenyl)urea]
500 to 1000 nM	500 to 1000 nM	< 250 nM	–	–	COc1cc2ncnc(Oc3cccc(NC(=O)Nc4cc(C(C)(C)C)on4)c3)c2cc1O[C@H]1CCN(C(=O)OC(C)(C)C)C1 [Ex 108, (S)-tert-butyl 3-(4-(3-(3-(5-tert-butylisoxazole-3-yl)ureido)phenoxy)-7-methoxyquinazolin-6-yloxy)pyrrolidine-1-carboxylate]
500 to 1000 nM	< 250 nM	< 250 nM	–	–	COc1cc2ncnc(Oc3cccc(NC(=O)Nc4cc(C(F)(F)F)nn4-c4ccc(C)cc4)c3)c2cc1OC [Ex 172, 1-[3-(6,7-dimethoxyquinazolin-4-yloxy)phenyl]-3-[1-p-tolyl-3-(trifluoromethyl)-1H-pyrazol-5-yl]urea]
500 to 1000 nM	> 1000 nM	500 to 1000 nM	–	–	COc1cc2ncnc(Sc3cccc(NC(=O)Nc4cc(C5(C(F)(F)F)CCC5)no4)c3)c2cc1OC [Ex 156, 1-(3-(6,7-dimethoxyquinazolin-4-ylthio)phenyl)-3-(3-(1-(trifluoromethyl)cyclobutyl)isoxazol-5-yl)urea]
250 to 500 nM	> 1000 nM	500 to 1000 nM	–	–	CCOC(C)(C)c1cc(NC(=O)Nc2cccc(Sc3ncnc4cc(OCCOC)c(OC)cc34)c2)n(-c2ccccc2)n1 [Ex 241, 1-[3-(2-ethoxypropan-2-yl)-1-phenyl-1H-pyrazol-5-yl]-3-{3-[6-methoxy-7-(2-methoxyethoxy)quinazolin-4-ylthio]phenyl}urea]
500 to 1000 nM	> 1000 nM	< 250 nM	–	–	CCOC(C)(C)c1cc(NC(=O)Nc2cccc(Oc3ncnc4cc(OC)c(OC)cc34)c2)n(-c2ccccc2)n1 [Ex 168, 1-[3-(6,7-dimethoxyquinazolin-4-yloxy)phenyl]-3-[3-(2-ethoxypropan-2-yl)-1-phenyl-1H-pyrazol-5-yl]urea]
250 to 500 nM	> 1000 nM	500 to 1000 nM	–	–	COc1cc2c(Oc3cccc(NC(=O)Nc4cc(C(C)(C)C)on4)c3)ncnc2cc1O[C@H]1CCN(CC(F)F)C1 [Ex 103, (S)-1-(5-tert-butylisoxazol-3-yl)-3-(3-{7-[1-(2,2-difluoroethyl)pyrrolidin-3-yloxy]-6-methoxyquinazolin-4-yloxy}phenyl)urea]
500 to 1000 nM	> 1000 nM	> 1000 nM	–	–	COc1cc2ncnc(Oc3cc(NC(=O)Nc4cc(C(C)(C)C)on4)ccc3Cl)c2cc1OC [Ex 10, 1-(5-tert-butylisoxazol-3-yl)-3-(4-chloro-3-(6,7-dimethoxyquinazolin-4-yloxy)phenyl)urea]
250 to 500 nM	> 1000 nM	500 to 1000 nM	–	–	CCOC(C)(C)c1cc(NC(=O)Nc2cccc(Oc3ncnc4cc(OCCOC)c(OC)cc34)c2)n(-c2ccccc2)n1 [Ex 212, 1-[3-(2-ethoxypropan-2-yl)-1-phenyl-1H-pyrazol-5-yl]-3-{3-[6-methoxy-7-(2-methoxyethoxy)quinazolin-4-yloxy]phenyl}urea]
250 to 500 nM	500 to 1000 nM	250 to 500 nM	–	–	COc1cc2ncnc(Sc3cccc(NC(=O)Nc4ccc(Cl)c(C(F)(F)F)c4)c3)c2cc1OC [Ex 186, 1-(4-chloro-3-(trifluoromethyl)phenyl)-3-(3-(6,7-dimethoxyquinazolin-4-ylthio)phenyl)urea]
250 to 500 nM	> 1000 nM	250 to 500 nM	–	–	COCC(C)(C)c1cc(NC(=O)Nc2cccc(Oc3ncnc4cc(OC)c(OC)cc34)c2)no1 [Ex 130, 1-(3-(6,7-dimethoxyquinazolin-4-yloxy)phenyl)-3-(5-(1-methoxy-2-methylpropan-2-yl)isoxazol-3-yl)urea]
250 to 500 nM	> 1000 nM	> 1000 nM	–	–	COCCOc1cc2ncnc(Oc3cccc(NC(=O)Nc4cc(C(=O)N5CCOCC5)cc(C(F)(F)F)c4)c3)c2cc1OC [Ex 205, 1-(3-(6-methoxy-7-(2-methoxyethoxy)quinazolin-4-yloxy)phenyl)-3-(3-(morpholine-4-carbonyl)-5-(trifluoromethyl)phenyl)urea]
500 to 1000 nM	250 to 500 nM	250 to 500 nM	–	–	COc1cc2ncnc(Oc3cccc(NC(=O)Nc4cc(C(F)(F)F)nn4-c4ccc(F)cc4)c3)c2cc1OC [Ex 171, 1-[3-(6,7-dimethoxyquinazolin-4-yloxy)phenyl]-3-[1-(4-fluorophenyl)-3-(trifluoromethyl)-1H-pyrazol-5-yl]urea]
250 to 500 nM	> 1000 nM	500 to 1000 nM	–	500 to 1000 nM	COc1cc2ncnc(Oc3cccc(NC(=O)Nc4cc(-c5ccccc5)on4)c3)c2cc1OC [Ex 113, 1-(3-(6,7-dimethoxyquinazolin-4-yloxy)phenyl)-3-(5-phenylisoxazol-3-yl)urea]

SMILES	Kd (RAF kinases [1])	EC50 (A375 cells)	IC50 [2]	Kd (RAF kinases [3])	Kd (RAF kinases [4])
CCOC(=O)Cn1nc(C(C)(C)C)cc1NC(=O)Nc1cccc(Oc2ncnc3cc(OC)c(OC)cc23)c1 [Ex 166, ethyl 2-(3-tert-butyl-5-{3-[3-(6,7-dimethoxyquinazolin-4-yloxy)phenyl]ureido}-1H-pyrazol-1-yl)acetate]	250 to 500 nM	> 1000 nM	500 to 1000 nM	–	–
COc1cc2ncnc(Oc3cccc(NC(=O)Nc4cc(C5CCOCC5)no4)c3)c2cc1OC [Ex 123, 1-(3-(6,7-dimethoxyquinazolin-4-yloxy)phenyl)-3-(3-(tetrahydro-2H-pyran-4-yl)isoxazol-5-yl)urea]	250 to 500 nM	> 1000 nM	> 1000 nM	500 to 1000 nM	–
CCOc1cc2ncnc(Sc3cccc(NC(=O)Nc4cc(C(C)(C)C)on4)c3)c2cc1OCC [Ex 51, 1-(5-tert-butylisoxazol-3-yl)-3-[3-(6,7-diethoxyquinazolin-4-ylthio)phenyl]urea]	500 to 1000 nM	> 1000 nM	250 to 500 nM	–	–
COCCOc1cc(NC(=O)Nc2cccc(Sc3ncnc4cc(OC)c(OC)cc34)c2)ccc1C(F)(F)F [Ex 148, 1-(3-(6,7-dimethoxyquinazolin-4-ylthio)phenyl)-3-(3-(2-methoxyethoxy)-4-(trifluoromethyl)phenyl)urea]	500 to 1000 nM	> 1000 nM	> 1000 nM	–	–
CCOC(=O)Cn1nc(C(C)(C)C)cc1NC(=O)Nc1cccc(Sc2ncnc3cc(OC)c(OC)cc23)c1 [Ex 195, ethyl 2-(3-tert-butyl-5-{3-[3-(6,7-dimethoxyquinazolin-4-ylthio)phenyl]ureido}-1H-pyrazol-1-yl)acetate]	250 to 500 nM	> 1000 nM	250 to 500 nM	–	–
COc1ccc2c(Sc3cccc(NC(=O)Nc4cc(C(C)(C)C)on4)c3)ncnc2c1 [Ex 48, 1-(5-tert-butylisoxazol-3-yl)-3-(3-(7-methoxyquinazolin-4-ylthio)phenyl)urea]	250 to 500 nM	> 1000 nM	500 to 1000 nM	–	–
COc1cc2ncnc(Sc3cccc(NC(=O)Nc4ccc(C(F)(F)F)c(OC)c4)c3)c2cc1OC [Ex 190, 1-(3-(6,7-dimethoxyquinazolin-4-ylthio)phenyl)-3-(3-methoxy-4-(trifluoromethyl)phenyl)urea]	500 to 1000 nM	> 1000 nM	> 1000 nM	–	–
CC(C)(C)c1cc(NC(=O)Nc2cccc(Sc3ncnc4cc5c(cc34)OCCO5)c2)no1 [Ex 54, 1-(5-tert-butylisoxazol-3-yl)-3-[3-(7,8-dihydro-[1,4]dioxino[2,3-g]quinazolin-4-ylthio)phenyl]urea hydrochloride]	500 to 1000 nM	> 1000 nM	500 to 1000 nM	–	–
